Source: patent US10980813B2, “Antifungal composition” (SEED RESEARCH INSTITUTE CO., LTD., priority 2017, dated 2021)
≈ marks a conversion by molar mass, not a printed value.

How the values were obtained:
Experiment in all cases: Antifungal activity, MIC by disc (diffusion) method
T. mentagrophytes = format: cell-based; conditions: Trichophyton mentagrophytes, YMG agar, 24 hr at 28° C., read-out: MIC (minimum inhibitory concentration) T. mentagrophytes
Protocol: (§1) Measurement Method of Antifungal Activity in Various Compounds
(§2) The minimum inhibitory concentration (MIC) was measured by a disc method (diffusion method). The disc method is one kind of the diffusion method, and is a method in which filter paper (disc) impregnated with an antifungal substance at a given concentration is placed on an agar medium (test plate) coated with a test bacterium and cultivated. The disc absorbs water in the medium, diffuses the antifungal substance and forms a given concentration gradient. As a result, the test bacterium forms a growth inhibition zone (circle) in the periphery of the disc, and the level of sensitivity to the antifungal substance is determined from the diameter of the inhibition circle.
(§3) Using the aforementioned method, MIC of various compounds was measured.
(§4) i: In a 100 mL flask, 20 mL of YMG or Mueller Hinton medium is produced.
(§5) ii: A loopful of the test bacterium is dissolved in the medium.
(§6) iii: The medium is cultured at 200 rpm for 24 hr in a rotary shaker set to 28° C.
(§7) i: In a 300 mL flask, 100 mL of YMG or Mueller Hinton agar medium (low melting point agar) is produced.
(§8) ii: After cooling to 37° C.-40° C., preculture medium (1 mL) is added and the mixture is agitated.
(§9) iii: The mixture is dispensed to a square petri dish (size: 100*150*17 mm) by 20 mL each.
(§10) iv: The dish is stood at room temperature until the agar is solidified.
(§11) i: The compound is diluted in ½ dilution series in 10 stages (timely changed according to compound), 50 μL of solution/pulp at each dilution stage is produced, the organic solvent is dried at room temperature and placed on a test plate.
(§12) ii: After culturing T. rubrum for 48 hr and other test bacteria for 24 hr at 28° C. in an incubator, the size of the inhibition circle was measured.
(§13) The medium composition for culture which was used for the aforementioned preculture is shown below.
(§14) [Medium Compositions for Preculture and Test Plate]
(§15) <<YMG Medium>>: For Fungus
(§16) Agar, powder 0.8% * added only when producing test plate

T. rubrum = format: cell-based; conditions: Trichophyton rubrum, YMG agar, 48 hr at 28° C., read-out: MIC (minimum inhibitory concentration) T. rubrum
Protocol: as §1, §2, §3, §4, §5, §6, §7, §8, §9, §10, §11, §12, §13, §14, §15, §16

Saccharomyces = format: cell-based; conditions: YMG agar, 24 hr at 28° C., read-out: MIC (minimum inhibitory concentration) Saccharomyces
Protocol: as §1, §2, §3, §4, §5, §6, §7, §8, §9, §10, §11, §12, §13, §14, §15, §16

A. fumigatus = format: cell-based; conditions: Aspergillus fumigatus, YMG agar, 24 hr at 28° C., read-out: MIC (minimum inhibitory concentration) A. fumigatus
Protocol: as §1, §2, §3, §4, §5, §6, §7, §8, §9, §10, §11, §12, §13, §14, §15, §16

C. parapsilosis = format: cell-based, Candida parapsilosis; conditions: Lodderomyces parapsilosis, YMG agar, 24 hr at 28° C., read-out: MIC (minimum inhibitory concentration) C. parapsilosis
Protocol: as §1, §2, §3, §4, §5, §6, §7, §8, §9, §10, §11, §12, §13, §14, §15, §16

SMILES	MIC (T. mentagrophytes)	MIC (T. rubrum)	MIC (Saccharomyces)	MIC (A. fumigatus)	MIC (C. parapsilosis)
O=S1(=O)OCC2(c3ccccc3)ON21 (stereo not drawn) [II-3c]	2 µg/mL (≈ 9.38 µM)	2 µg/mL (≈ 9.38 µM)	8 µg/mL (≈ 37.5 µM)	8 µg/mL (≈ 37.5 µM)	8 µg/mL (≈ 37.5 µM)
O=S1(=O)Nc2ccc(Cl)cc2C2(c3ccccc3)ON21 (stereo not drawn) [II-1l]	2 µg/mL (≈ 6.48 µM)	2 µg/mL (≈ 6.48 µM)	8 µg/mL (≈ 25.9 µM)	8 µg/mL (≈ 25.9 µM)	8 µg/mL (≈ 25.9 µM)
O=S1(=O)N=C2C(=COc3ccccc32)C2ON21 (stereo not drawn) [II-6a]	1 µg/mL (≈ 4 µM)	1 µg/mL (≈ 4 µM)	4 µg/mL (≈ 16 µM)	4 µg/mL (≈ 16 µM)	4 µg/mL (≈ 16 µM)
CC1=NS(=O)(=O)N=C1C [I-4b]	4 µg/mL (≈ 27.4 µM)	4 µg/mL (≈ 27.4 µM)	16 µg/mL (≈ 109 µM)	16 µg/mL (≈ 109 µM)	16 µg/mL (≈ 109 µM)
O=S1(=O)N=C(CCc2ccc(F)cc2)C2ON21 (stereo not drawn) [II-4c]	2 µg/mL (≈ 7.8 µM)	2 µg/mL (≈ 7.8 µM)	8 µg/mL (≈ 31.2 µM)	8 µg/mL (≈ 31.2 µM)	8 µg/mL (≈ 31.2 µM)
O=S1(=O)N2OC2c2nccn21 (stereo not drawn) [II-5a]	2 µg/mL (≈ 11.6 µM)	2 µg/mL (≈ 11.6 µM)	8 µg/mL (≈ 46.2 µM)	8 µg/mL (≈ 46.2 µM)	8 µg/mL (≈ 46.2 µM)
O=[N+]([O-])c1ccc2c(c1)C1ON1S(=O)(=O)O2 (stereo not drawn) [II-1e]	1 µg/mL (≈ 4.1 µM)	1 µg/mL (≈ 4.1 µM)	4 µg/mL (≈ 16.4 µM)	4 µg/mL (≈ 16.4 µM)	4 µg/mL (≈ 16.4 µM)
O=S1(=O)N=Cc2cc(F)ccc2O1 [I-1a]	1 µg/mL (≈ 4.97 µM)	1 µg/mL (≈ 4.97 µM)	4 µg/mL (≈ 19.9 µM)	4 µg/mL (≈ 19.9 µM)	4 µg/mL (≈ 19.9 µM)
O=S1(=O)N=Cc2cc(Br)ccc2O1 [I-1c]	1 µg/mL (≈ 3.82 µM)	1 µg/mL (≈ 3.82 µM)	4 µg/mL (≈ 15.3 µM)	4 µg/mL (≈ 15.3 µM)	4 µg/mL (≈ 15.3 µM)
O=[N+]([O-])c1ccc2c(c1)C=NS(=O)(=O)O2 [I-1e]	1 µg/mL (≈ 4.38 µM)	1 µg/mL (≈ 4.38 µM)	4 µg/mL (≈ 17.5 µM)	4 µg/mL (≈ 17.5 µM)	4 µg/mL (≈ 17.5 µM)
O=S1(=O)N=CC2=COc3ccc(Cl)cc3C2=N1 [I-6c]	1 µg/mL (≈ 3.72 µM)	1 µg/mL (≈ 3.72 µM)	4 µg/mL (≈ 14.9 µM)	4 µg/mL (≈ 14.9 µM)	4 µg/mL (≈ 14.9 µM)
O=[N+]([O-])c1cc(Cl)cc2c1OS(=O)(=O)N=C2 [I-1i]	1 µg/mL (≈ 3.81 µM)	1 µg/mL (≈ 3.81 µM)	4 µg/mL (≈ 15.2 µM)	4 µg/mL (≈ 15.2 µM)	4 µg/mL (≈ 15.2 µM)
O=S1(=O)N=C2C(=COc3ccc(F)cc32)C2ON21 (stereo not drawn) [II-6b]	1 µg/mL (≈ 3.73 µM)	1 µg/mL (≈ 3.73 µM)	4 µg/mL (≈ 14.9 µM)	4 µg/mL (≈ 14.9 µM)	4 µg/mL (≈ 14.9 µM)
N#Cc1ccc2c(c1)C=NS(=O)(=O)O2 [I-1g]	1 µg/mL (≈ 4.8 µM)	1 µg/mL (≈ 4.8 µM)	4 µg/mL (≈ 19.2 µM)	4 µg/mL (≈ 19.2 µM)	4 µg/mL (≈ 19.2 µM)
O=S1(=O)N=Cc2cccn21 [I-5b]	4 µg/mL (≈ 25.6 µM)	4 µg/mL (≈ 25.6 µM)	16 µg/mL (≈ 102 µM)	16 µg/mL (≈ 102 µM)	16 µg/mL (≈ 102 µM)
CC1=CC(c2ccccc2)=NS(=O)(=O)N1 [I-2c]	2 µg/mL (≈ 9 µM)	2 µg/mL (≈ 9 µM)	8 µg/mL (≈ 36 µM)	8 µg/mL (≈ 36 µM)	8 µg/mL (≈ 36 µM)
CC1=NS(=O)(=O)N2OC12 (stereo not drawn) [II-4a]	2 µg/mL (≈ 13.5 µM)	2 µg/mL (≈ 13.5 µM)	8 µg/mL (≈ 54 µM)	8 µg/mL (≈ 54 µM)	8 µg/mL (≈ 54 µM)
O=S1(=O)N=C(c2ccc(Cl)cc2)CO1 [I-3d]	2 µg/mL (≈ 8.63 µM)	2 µg/mL (≈ 8.63 µM)	8 µg/mL (≈ 34.5 µM)	8 µg/mL (≈ 34.5 µM)	8 µg/mL (≈ 34.5 µM)
O=S1(=O)N=Cc2nccn21 [I-5a]	2 µg/mL (≈ 12.7 µM)	2 µg/mL (≈ 12.7 µM)	8 µg/mL (≈ 50.9 µM)	8 µg/mL (≈ 50.9 µM)	8 µg/mL (≈ 50.9 µM)
COC(=O)c1ccc2c(c1)C=NS(=O)(=O)O2 [I-1f]	1 µg/mL (≈ 4.15 µM)	1 µg/mL (≈ 4.15 µM)	4 µg/mL (≈ 16.6 µM)	4 µg/mL (≈ 16.6 µM)	4 µg/mL (≈ 16.6 µM)
O=S1(=O)N2OC2c2cccn21 (stereo not drawn) [II-5b]	4 µg/mL (≈ 23.2 µM)	4 µg/mL (≈ 23.2 µM)	16 µg/mL (≈ 92.9 µM)	16 µg/mL (≈ 92.9 µM)	16 µg/mL (≈ 92.9 µM)
O=S1(=O)N=C(c2ccccc2)CO1 [I-3c]	2 µg/mL (≈ 10.1 µM)	2 µg/mL (≈ 10.1 µM)	8 µg/mL (≈ 40.6 µM)	8 µg/mL (≈ 40.6 µM)	8 µg/mL (≈ 40.6 µM)
CCCCCCCCN1CC(c2ccccc2)=NS1(=O)=O [I-3e]	2 µg/mL (≈ 6.48 µM)	2 µg/mL (≈ 6.48 µM)	8 µg/mL (≈ 25.9 µM)	8 µg/mL (≈ 25.9 µM)	8 µg/mL (≈ 25.9 µM)
CC12ON1S(=O)(=O)Oc1ccccc12 (stereo not drawn) [II-1j]	2 µg/mL (≈ 9.38 µM)	2 µg/mL (≈ 9.38 µM)	8 µg/mL (≈ 37.5 µM)	8 µg/mL (≈ 37.5 µM)	8 µg/mL (≈ 37.5 µM)
COc1ccc2c(c1)C1ON1S(=O)(=O)O2 (stereo not drawn) [II-1d]	2 µg/mL (≈ 8.73 µM)	2 µg/mL (≈ 8.73 µM)	8 µg/mL (≈ 34.9 µM)	8 µg/mL (≈ 34.9 µM)	8 µg/mL (≈ 34.9 µM)
O=S1(=O)Oc2ccc(Br)cc2C2ON21 (stereo not drawn) [II-1c]	1 µg/mL (≈ 3.6 µM)	1 µg/mL (≈ 3.6 µM)	4 µg/mL (≈ 14.4 µM)	4 µg/mL (≈ 14.4 µM)	4 µg/mL (≈ 14.4 µM)
O=S1(=O)N=Cc2cc(Cl)cc(Cl)c2O1 [I-1h]	1 µg/mL (≈ 3.97 µM)	1 µg/mL (≈ 3.97 µM)	4 µg/mL (≈ 15.9 µM)	4 µg/mL (≈ 15.9 µM)	4 µg/mL (≈ 15.9 µM)
CC1=NS(=O)(=O)N=C1 [I-4a]	2 µg/mL (≈ 15.1 µM)	2 µg/mL (≈ 15.1 µM)	8 µg/mL (≈ 60.5 µM)	8 µg/mL (≈ 60.5 µM)	8 µg/mL (≈ 60.5 µM)
CC1=NS(=O)(=O)OC(C)=C1C [I-2a]	2 µg/mL (≈ 11.4 µM)	2 µg/mL (≈ 11.4 µM)	8 µg/mL (≈ 45.7 µM)	8 µg/mL (≈ 45.7 µM)	8 µg/mL (≈ 45.7 µM)
O=S1(=O)N=C(CCc2ccc(Cl)cc2)C2ON21 (stereo not drawn) [II-4d]	2 µg/mL (≈ 7.33 µM)	2 µg/mL (≈ 7.33 µM)	8 µg/mL (≈ 29.3 µM)	8 µg/mL (≈ 29.3 µM)	8 µg/mL (≈ 29.3 µM)
